Tests used:
Format in all cases: functional
Design in all cases: concentration or dose not given beside the values
Plasmodium berghei = test: MMV: P. berghei-infected blood was withdrawn from mice by cardiac pucture before being immediately added to ookinete culture medium containing test compounds. 26 hr later, GFP-positive ookinetes were identified and counted by automated microscopy. All compounds were tested in 4 independent experiments and data presented here is the mean.
Plasmodium falciparum [1] = test: MMV: P. falciparum NF54 functionally mature Stage V gametocytes were incubated for 24 hr in the presence of the test compounds. Gamete formation was then triggered by addition of 2uM xantheurenic acid and temperature decrease to ~20C. Female gamete formation was recorded 24 hr later by automated microscopy detection of surface labelling of female gametes with a Cy3-conjugated antibody reactive to Pfs25. All compounds were tested in 4 independent experiments and data presented here is the mean.; details: NF54, 24 h
Plasmodium falciparum [2] = test: MMV: P. falciparum NF54 functionally mature Stage V gametocytes were incubated for 24 hr in the presence of the test compounds. Gamete formation was then triggered by addition of 2uM xantheurenic acid and temperature decrease to ~20C. Male gamete exflagellation was recorded and analysed by automated microscopy after 20 min. All compounds were tested in 4 independent experiments and data presented here is the mean.

`COc1ccc(-c2nc3cc(Cc4ccc5[nH]c(-c6ccc(OC)cc6)nc5c4)ccc3[nH]2)cc1` was tested, and the inhibition (Plasmodium berghei) was -5.308%, the inhibition (Plasmodium falciparum [1]) was -12.5% and the inhibition (Plasmodium falciparum [2]) was 28.3%.
With `c1ccc(-c2ccc(-c3nc4ccccc4[nH]3)cc2)cc1` the inhibition (Plasmodium berghei) was -1.667%, the inhibition (Plasmodium falciparum [1]) was -7.69% and the inhibition (Plasmodium falciparum [2]) was 15.6%.
With `O=C(NCC1Cc2cccc(-c3ccncc3)c2O1)c1csc2c1CCCC2` (configuration not stated) the inhibition (Plasmodium berghei) was -13.38%, the inhibition (Plasmodium falciparum [1]) was -19.3% and the inhibition (Plasmodium falciparum [2]) was 20.6%.
Molecule `COc1ccccc1CNC(=O)CCn1c(=O)[nH]c2ccccc2c1=O` has an inhibition (Plasmodium berghei) of -17.49%, an inhibition (Plasmodium falciparum [1]) of -26.4% and an inhibition (Plasmodium falciparum [2]) of 13.3%.
`N=c1c2ccccc2nnn1-c1cccc(C(F)(F)F)c1` showed an inhibition (Plasmodium berghei) of -9.695%, an inhibition (Plasmodium falciparum [1]) of 7.15% and an inhibition (Plasmodium falciparum [2]) of 51.2%.
`COc1ccc(-c2nc(NC(=O)CS(=O)(=O)c3ccc(F)cc3)sc2C)cc1` gave an inhibition (Plasmodium berghei) of -6.755%, an inhibition (Plasmodium falciparum [1]) of 7.25% and an inhibition (Plasmodium falciparum [2]) of -20.9%.
In the case of `CN1CCN(c2c3c(c(C#N)c4nc5ccccc5n24)CCC3)CC1`, the inhibition (Plasmodium berghei) is reported as 0.2959%, the inhibition (Plasmodium falciparum [1]) is reported as -10.7% and the inhibition (Plasmodium falciparum [2]) is reported as 16.1%.
In the case of `O=C1c2ccc3c4c(ccc(c24)C(=O)N1CCCCO)C(=O)N(CCCCO)C3=O`, the inhibition (Plasmodium berghei) is reported as -0.9886%, the inhibition (Plasmodium falciparum [1]) is reported as -45.3% and the inhibition (Plasmodium falciparum [2]) is reported as -2.41%.
Molecule `Cc1cc(NC(=O)c2cccc(C(F)(F)F)c2)n(-c2nc(-c3ccc4c(c3)OCO4)cs2)n1` has an inhibition (Plasmodium berghei) of -1.403%, an inhibition (Plasmodium falciparum [1]) of 17.1% and an inhibition (Plasmodium falciparum [2]) of 11.3%.
`O=C(Nc1ccsc1C(=O)NC1CCCCC1)c1ccc(F)cc1` showed an inhibition (Plasmodium berghei) of -7.294%, an inhibition (Plasmodium falciparum [1]) of -14.2% and an inhibition (Plasmodium falciparum [2]) of 0.722%.
Molecule `CCOc1cccc2sc(N(Cc3cccnc3)C(=O)C3CCCCC3)nc12` has an inhibition (Plasmodium berghei) of -7.751%, an inhibition (Plasmodium falciparum [1]) of -5.49% and an inhibition (Plasmodium falciparum [2]) of -1.33%.
`CCCCCn1c(=N)n(CC(O)COc2cccc(C)c2)c2ccccc21.Cl` (configuration not stated) gave an inhibition (Plasmodium berghei) of 6.769%, an inhibition (Plasmodium falciparum [1]) of -30.6% and an inhibition (Plasmodium falciparum [2]) of -6.7%.
In the case of `COc1cc(C(=O)Nc2ccc(-c3nc4ccccc4[nH]3)cc2)cc(OC)c1OC`, the inhibition (Plasmodium berghei) is reported as 21.1%, the inhibition (Plasmodium falciparum [1]) is reported as -25.2% and the inhibition (Plasmodium falciparum [2]) is reported as -40.5%.
In the case of `O=C(O)C(=O)O.Oc1ccccc1CN1CCN(C(c2ccccc2)c2ccccc2)CC1`, the inhibition (Plasmodium berghei) is reported as 19.05%, the inhibition (Plasmodium falciparum [1]) is reported as -11.9% and the inhibition (Plasmodium falciparum [2]) is reported as 23.5%.
In the case of `COc1ccc(OC)c(C2C3=C(CC(C)(C)CC3=O)N(c3ccc(Cl)c(Cl)c3)C3=C2C(=O)CC(C)(C)C3)c1`, the inhibition (Plasmodium berghei) is reported as -8.364%, the inhibition (Plasmodium falciparum [1]) is reported as -10.6% and the inhibition (Plasmodium falciparum [2]) is reported as -60%.
`CCCOCc1cc(CN2CCN(c3cccc(Cl)c3)CC2)c(O)c2ncccc12` showed an inhibition (Plasmodium berghei) of -5.698%, an inhibition (Plasmodium falciparum [1]) of 14.3% and an inhibition (Plasmodium falciparum [2]) of 19%.
For `COc1ccc(Nc2cc(C)nc(NCc3ccccc3)n2)cc1`, the inhibition (Plasmodium berghei) was -20.03%, the inhibition (Plasmodium falciparum [1]) was -30.5% and the inhibition (Plasmodium falciparum [2]) was -9.51%.
`O=C(c1ccccc1F)N(Cc1ccc(Cl)cc1)c1ccccn1` showed an inhibition (Plasmodium berghei) of -2.284%, an inhibition (Plasmodium falciparum [1]) of -28.6% and an inhibition (Plasmodium falciparum [2]) of 20.3%.
Molecule `CCCn1c(=N)c(C(=O)NC2CCCCC2)cc2c(=O)n3cccc(C)c3nc21` has an inhibition (Plasmodium berghei) of -1.292%, an inhibition (Plasmodium falciparum [1]) of -11.9% and an inhibition (Plasmodium falciparum [2]) of 22.1%.
Molecule `O=C(Nc1ccc(N2CCCCC2)c(Cl)c1)c1ccc(Br)o1` has an inhibition (Plasmodium berghei) of 4.656%, an inhibition (Plasmodium falciparum [1]) of -35.3% and an inhibition (Plasmodium falciparum [2]) of 41.2%.
`CC(Oc1ccc(NC(=O)c2cccs2)cc1)C(=O)c1ccc(Cl)cc1` (configuration not stated) gave an inhibition (Plasmodium berghei) of 73.22%, an inhibition (Plasmodium falciparum [1]) of -14% and an inhibition (Plasmodium falciparum [2]) of 25.6%.
For `CCN(CC)CCCNc1ccnc2cc3ccccc3cc12`, the inhibition (Plasmodium berghei) was -14.18%, the inhibition (Plasmodium falciparum [1]) was 20.2% and the inhibition (Plasmodium falciparum [2]) was 30.2%.
Molecule `COc1ccc(/C=C2/SC(=Nc3ccccc3)NC2=O)cc1` has an inhibition (Plasmodium berghei) of 15.63%, an inhibition (Plasmodium falciparum [1]) of -46.5% and an inhibition (Plasmodium falciparum [2]) of 3.39%.
For `CN(C)c1ccc(-c2nc3cc(N)ccc3[nH]2)cc1`, the inhibition (Plasmodium berghei) was -2.982%, the inhibition (Plasmodium falciparum [1]) was -7.9% and the inhibition (Plasmodium falciparum [2]) was 12.2%.
`COc1cccc(C2(C)Nc3ccccc3-c3nc4ccccc4n32)c1` (configuration not stated) showed an inhibition (Plasmodium berghei) of 6.874%, an inhibition (Plasmodium falciparum [1]) of 7.61% and an inhibition (Plasmodium falciparum [2]) of -12.6%.
With `O=C1CC(O)(C(F)(F)C(F)(F)F)Oc2ccccc21` (configuration not stated) the inhibition (Plasmodium berghei) was -0.9117% and the inhibition (Plasmodium falciparum [1]) was -15.2%.
